In PubChem BioAssay (NCI):
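1) Cells in 96-well plates. 2) Compound, 48 h, 5 concentrations. 3) Linear interpolation between surrounding doses. 4) Unreached endpoint = highest concentration. TGI: concentration producing complete growth inhibition.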

What was measured:
Assay in all cases: NCI-60 cell line screen, 48 h
NCI-H460 lung = test system: NCI-H460 lung
UO-31 renal = test system: UO-31 renal
OVCAR-8 ovarian = test system: OVCAR-8 ovarian
SF-268 CNS = test system: SF-268 CNS
EKVX NSCLC = test system: EKVX NSCLC
ACHN renal = test system: ACHN renal
HL-60(TB) leukemia = test system: HL-60(TB) leukemia
HCC-2998 colon = test system: HCC-2998 colon
T-47D breast = test system: T-47D breast
SR leukemia = test system: SR leukemia
SN12C renal = test system: SN12C renal
M14 melanoma = test system: M14 melanoma
MALME-3M melanoma = test system: MALME-3M melanoma
HCT-15 colon = test system: HCT-15 colon
CAKI-1 renal = test system: CAKI-1 renal
HT29 colon = test system: HT29 colon
COLO 205 colon = test system: COLO 205 colon
RXF 393 renal = test system: RXF 393 renal
BT-549 breast = test system: BT-549 breast
HS 578T breast = test system: HS 578T breast

SMILES	TGI (NCI-H460 lung)	TGI (UO-31 renal)	TGI (OVCAR-8 ovarian)	TGI (SF-268 CNS)	TGI (EKVX NSCLC)	TGI (ACHN renal)	TGI (HL-60(TB) leukemia)	TGI (HCC-2998 colon)	TGI (T-47D breast)	TGI (SR leukemia)	TGI (SN12C renal)	TGI (M14 melanoma)	TGI (MALME-3M melanoma)	TGI (HCT-15 colon)	TGI (CAKI-1 renal)	TGI (HT29 colon)	TGI (COLO 205 colon)	TGI (RXF 393 renal)	TGI (BT-549 breast)	TGI (HS 578T breast)
CCOC(=O)Cc1nnc2n(-c3ccccc3)c(=O)c3ccccc3n12	> 100 µM	> 100 µM	> 100 µM	> 100 µM	> 100 µM	> 100 µM	> 100 µM	> 100 µM	> 100 µM	> 100 µM	> 100 µM	> 100 µM	> 100 µM	> 100 µM	43.3 µM	> 100 µM	> 100 µM	> 100 µM		
CC(=O)OCCOCNC(=S)N/N=C/c1cc([N+](=O)[O-])ccc1O	> 100 µM	> 100 µM	> 100 µM	> 100 µM	> 100 µM	> 100 µM	> 100 µM	> 100 µM			> 100 µM	> 100 µM	> 100 µM	> 100 µM		> 100 µM	> 100 µM	> 100 µM		
O=C1Cc2nc(CO)c(CO)c(CO)c2CO1	> 100 µM	> 100 µM	> 100 µM	> 100 µM	> 100 µM	> 100 µM	> 100 µM	> 100 µM			> 100 µM	> 100 µM	> 100 µM	> 100 µM	> 100 µM	> 100 µM	> 100 µM			
COc1ccc2[nH]c3c(c2c1)CC(=O)N1CCCC(CC3O)C1 (configuration not stated)	> 100 µM	> 100 µM	> 100 µM	> 100 µM		> 100 µM		> 100 µM	> 100 µM		> 100 µM		> 100 µM	> 100 µM	> 100 µM	> 100 µM	> 100 µM		> 100 µM	> 100 µM
N#CC(C#N)=C/C=C/c1c(Cl)cccc1Cl	4.08 µM	3.39 µM	3.48 µM	4.07 µM	> 10 µM	3.19 µM	4.04 µM	3.34 µM	6.19 µM	> 10 µM	3.9 µM	3.06 µM	3.15 µM	4.01 µM	4.55 µM	3.25 µM	3.17 µM	2.97 µM		5.55 µM
Cc1ccc(Cc2nn(C)c(=O)n2N)cc1	> 100 µM	> 100 µM	> 100 µM		> 100 µM	> 100 µM		> 100 µM	> 100 µM		> 100 µM	> 100 µM		> 100 µM	> 100 µM	> 100 µM	> 100 µM		> 100 µM	
CNC(=O)C1(C#N)C(c2ccccc2)C(C#N)(C(=O)NC)C1c1ccccc1 (configuration not stated)	> 100 µM	> 100 µM	> 100 µM	> 100 µM	> 100 µM	> 100 µM		> 100 µM	> 100 µM	> 100 µM	> 100 µM	> 100 µM		> 100 µM	> 100 µM	> 100 µM	> 100 µM			> 100 µM
COc1ccc(N2C(=O)C3c4[nH]c5ccccc5c4C4CC(C)(C)CC(C)(C)C4C3C2=O)cc1 (configuration not stated)		> 100 µM	11.1 µM	54 µM	38.2 µM	31.9 µM	> 100 µM	> 100 µM		25.7 µM	33.2 µM	41.8 µM	36.3 µM	> 100 µM		> 100 µM	34.8 µM	33.1 µM		
Cc1c(/C=N/NC(=S)Nc2ccc(Cl)cc2)c(=O)n(-c2ccccc2)n1C	> 61 µM	> 100 µM	> 60.6 µM	39 µM	> 65.2 µM	31.9 µM	> 100 µM	> 100 µM	> 83.9 µM	> 100 µM	> 100 µM	> 100 µM	> 60.3 µM	> 100 µM	> 48.3 µM	> 100 µM	> 100 µM	28 µM		50.8 µM
C/C(N)=C/C(=O)c1[nH]c(C(=O)O)cc1C1CCN(Cc2ccccc2)C1=O (configuration not stated)	> 100 µM	75.2 µM	50.8 µM	60.8 µM	> 100 µM	> 100 µM		> 100 µM	74.9 µM			39 µM	50.2 µM	> 100 µM	> 100 µM	> 100 µM	65.1 µM	45.2 µM	74.6 µM	> 100 µM
CN(C)Cc1cc(C(=O)/C=C/c2ccc(Cl)c(Cl)c2)cc(CN(C)C)c1O	7.9 µM	5.39 µM	4.9 µM	13.2 µM	20.8 µM	11.6 µM	> 100 µM	12.5 µM	19.9 µM		7.83 µM	4.34 µM	10.4 µM	12.7 µM	4.08 µM	2.79 µM	2.65 µM	11.1 µM		8.74 µM
Cc1cc(=O)oc2c(CNC(CO)C(=O)O)c(O)ccc12 (configuration not stated)	> 100 µM	> 100 µM	> 100 µM	> 100 µM	> 100 µM	> 100 µM	> 100 µM		> 100 µM	> 100 µM	> 100 µM	> 100 µM	> 100 µM	> 100 µM	> 100 µM	> 100 µM	> 100 µM	> 100 µM		> 100 µM
c1cc2nnsc2s1	> 100 µM	> 100 µM	> 100 µM	> 100 µM	> 100 µM	> 100 µM	> 100 µM	> 100 µM			> 100 µM	> 100 µM	> 100 µM	> 100 µM	> 100 µM	> 100 µM	> 100 µM			
CC(O)CN1c2ccccc2Sc2ccccc21 (configuration not stated)	> 100 µM	> 100 µM	> 100 µM	> 100 µM	> 100 µM	> 100 µM		> 100 µM	> 100 µM		> 100 µM	> 100 µM	> 100 µM	> 100 µM	> 100 µM	> 100 µM	> 100 µM	> 100 µM	> 100 µM	> 100 µM
CC(C)CCNC(=O)C(CC(C)C)NC(=O)[C@H]1O[C@@H]1C(=O)O (some centres not stated)	> 100 µM	> 100 µM	> 100 µM	> 100 µM	> 100 µM			> 100 µM	> 100 µM		> 100 µM	> 100 µM	> 100 µM	> 100 µM	> 100 µM	> 100 µM	> 100 µM		> 100 µM	> 100 µM
CNC1c2ccccc2C(=O)c2cc3c(cc21)OCCOCCOCCOCCO3 (configuration not stated)	> 100 µM	> 100 µM	> 100 µM	> 100 µM	> 100 µM	> 100 µM	66.6 µM	> 100 µM	> 100 µM	96.2 µM	> 100 µM	> 100 µM		> 100 µM		> 100 µM	> 100 µM			> 100 µM
CC(NCc1c(O)ccc2ccc(=O)oc12)C(=O)O (configuration not stated)	> 100 µM	> 100 µM	> 100 µM	> 100 µM	> 100 µM	> 100 µM	> 100 µM	> 100 µM	> 100 µM	> 100 µM	> 100 µM	> 100 µM	> 100 µM	> 100 µM	> 100 µM	> 100 µM	> 100 µM	> 100 µM		> 100 µM
Cc1ccc(OCC2OC(n3cnc4nc(Nc5ccc(Cl)c(Cl)c5)nc(Cl)c43)CC2Oc2ccc(C)cc2)cc1 (configuration not stated)	> 100 µM	> 100 µM	> 100 µM	> 100 µM	> 100 µM	> 100 µM		> 100 µM	> 100 µM		> 100 µM	> 100 µM	> 100 µM	> 100 µM	> 100 µM	> 100 µM	> 100 µM	> 100 µM	> 100 µM	> 100 µM
O=C(Cc1ccccc1)NN1C(=O)/C(=C\c2cccc([N+](=O)[O-])c2)SC1=Nc1ccccc1	> 100 µM	> 100 µM	> 100 µM	> 100 µM	> 100 µM	> 100 µM		> 100 µM	> 100 µM		> 100 µM	> 100 µM		> 100 µM		> 100 µM	> 100 µM	> 100 µM		> 100 µM
O=C(NCCC1CN(C(=O)OCc2ccccc2)c2ccccc21)OCc1ccccc1 (configuration not stated)	> 100 µM	> 100 µM	> 100 µM	> 100 µM	> 100 µM	> 100 µM		> 100 µM				> 100 µM	> 100 µM	> 100 µM	> 100 µM	> 100 µM	> 100 µM	> 100 µM	> 100 µM	> 100 µM
COc1ccc(C2ON(c3ccccc3)CC=C2C)cc1 (configuration not stated)	> 100 µM	> 100 µM	> 100 µM	> 100 µM	> 100 µM	> 100 µM	> 100 µM	> 100 µM		> 100 µM	> 100 µM	> 100 µM	> 100 µM	> 100 µM	> 100 µM	> 100 µM	> 100 µM	> 100 µM		
COc1cc(CC2c3cc(OC)c(OC)cc3CCN2C)ccc1O (configuration not stated)	> 100 µM	> 100 µM	> 100 µM	> 100 µM	> 100 µM	> 100 µM		> 100 µM			> 100 µM	> 100 µM	> 100 µM	> 100 µM	> 100 µM	> 100 µM				
CN/C=C(\C(=O)c1ccc(OC)c(OC)c1)c1ccc(OC)cc1	63.2 µM	48.6 µM	30.4 µM	72.9 µM	> 100 µM	75.1 µM	32.3 µM			60.7 µM	31.7 µM	37 µM		28.2 µM		38.2 µM	38.3 µM	33.2 µM		
O=[N+]([O-])c1ccc(N/N=C2/CC3=C2CCCCCCCCCC3)c([N+](=O)[O-])c1	> 100 µM	> 100 µM	> 100 µM	> 100 µM	> 100 µM	> 100 µM		> 100 µM	> 100 µM		> 100 µM	> 100 µM	> 100 µM	> 100 µM	> 100 µM	> 100 µM	> 100 µM	> 100 µM	> 100 µM	> 100 µM
CC[C@]12C=CCN3CCC4(c5cc([C@@]6(C(=O)OC)CC7CN(CCc8c6[nH]c6ccccc86)C[C@@H]6CCCC[C@H]76)c(OC)cc5N(C)C4[C@](O)(C(=O)OC)C1OC(C)=O)[C@@H]32 (some centres not stated)	0.0425 µM	8.58 µM		16.5 µM	22.8 µM	5.53 µM		< 0.01 µM	38.5 µM		18.3 µM	3.14 µM	4.95 µM	12.5 µM	16.7 µM	< 0.01 µM	< 0.01 µM		21.2 µM	< 0.01 µM
O=c1[nH]c(=O)n(C2CC(O)C(CO)O2)cc1C(F)(C(F)(F)F)C(F)(F)F (configuration not stated)	> 100 µM	> 100 µM	> 100 µM	> 100 µM	> 100 µM	> 100 µM	> 100 µM			> 100 µM	> 100 µM	> 100 µM	> 100 µM	> 100 µM	> 100 µM	> 100 µM	> 100 µM	> 100 µM		
CCOC(=O)C1=C(C)NC2=C(C(=O)N(c3ccccc3)C2c2ccccc2)C1c1ccccc1 (configuration not stated)		39.1 µM	53.4 µM	33.7 µM	44.2 µM	27 µM	81.2 µM	31.7 µM		45.5 µM	35.8 µM	32.1 µM	33.7 µM	32.2 µM	31.6 µM	37.2 µM	33.5 µM			
CC(=O)Nc1ccc(-c2nnc(SCC(=O)Nc3cccc(Cl)c3)o2)cc1	51.2 µM	76.9 µM	> 100 µM	37.8 µM	45 µM	28.9 µM	60.4 µM	37.6 µM			31.6 µM	29.5 µM	26.8 µM	> 100 µM	33.2 µM	31 µM	31 µM	31.4 µM		
